In patent US12194039B2, “Methods of treating heart failure by administering omecamtiv mecarbil” (Cytokinetics, Inc., priority 2020, dated 2025):
Where two headings read alike, the source gives them in different places.

Experiments:
P-gp = P-gp (Homo sapiens, UniProt P08183); test: Transporter substrate assessment; format: in vitro ADME; details: result in words
[1] = system: patients with or without more advanced HF; format: in vivo, human; details: for KCCQ total symptom score (TSS), increase: inpatient; for KCCQ total symptom score (TSS), increase / KCCQ total symptom score (TSS), decrease: vs placebo; for KCCQ total symptom score (TSS), decrease: outpatient
Excerpt: Patients having more advanced heart failure (HF): In some aspects, provided is a method of treating a patient having more advanced HF by administering omecamtiv mecarbil as described herein. More advanced HF, also referred to as severe HF, refractory HF, or Stage D HF, can be determined based on a number of criteria recognized in the medical field. In some embodiments, more advanced HF refers to the published criteria from the 2018 ESC-HFA position statement (European journal of heart failure. 2018; 20:1505-1535). For the ESC-HFA criteria, patients were required to have all of 1) NYHA class III-IV symptoms, 2) a left ventricular ejection fraction 30%, 3) 2 or more hospitalizations for HF within the prior 12 months, and 4) evidence of severe functional impairment as defined by cardiopulmonary exercise testing or 6-minute walk test. In some embodiments, the hospitalization criteria is modified to one HF hospitalization within the prior 6 months In some embodiments, more advanced HF refers to patients having all of 1) NYHA class III-IV symptoms, 2) a left ventricular ejection fraction 30%, and 3) 1 or more hospitalizations for HF within the prior 6 months.
Baseline characteristics for patients classified as more advanced HF compared to those without were evaluated using appropriate summary statistics. Outcomes for patients with or without more advanced HF were compared using Cox proportional hazards models and Kaplan-Meier curves. […] Absolute event rates were described using rate per 100 patient-years. As a sensitivity analysis, the event rates and treatment effect of omecamtiv mecarbil for patients was assessed by specific advanced HF criteria met, as well as the total number of criteria met. For quality-of-life data as assessed by the Kansas City Cardiomyopathy Questionnaire Total Symptom Score (KCCQ TSS), linear regression adjusted for baseline scores was used to compare treatment effects of omecamtiv mecarbil compared to placebo. Safety and tolerability data for patients with advanced HF vs. those without were summarized using descriptive statistics. P value ≤0.05 was considered statistically significant for all analyses.

[2] = Pharmacokinetics in patients with hepatic impairment; format: in vivo, human; details: single dose 25 mg; mild (Child-Pugh A) or moderate (Child-Pugh B) hepatic impairment; result in words
Protocol: The pharmacokinetics of a single dose of OM 25 mg were evaluated in patients with mild (Child-Pugh A) or moderate (Child-Pugh B) hepatic impairment. The pharmacokinetics (Cmax and AUC) of OM in patients with mild or moderate hepatic impairment were similar to those in patients with normal hepatic function.

CYP3A4 = test: Clinical studies and physiologically based pharmacokinetic modeling of OM as perpetrator; format: in vivo, human; details: clinical studies and PBPK modeling; result in words
Excerpt: OM may be administered with drugs that are substrates of CYP3A4, CYP2C8, P-gp or BCRP.

[3] = Advanced HF, week 0 to 24, OM vs placebo
[4] = Less Advanced Heart Failure, OM group
[5] = Less Advanced Heart Failure, OM vs placebo
[6] = More Advanced Heart Failure, OM group
[7] = More Advanced Heart Failure, OM vs placebo

Chain of P-gp (P08183 whole entry): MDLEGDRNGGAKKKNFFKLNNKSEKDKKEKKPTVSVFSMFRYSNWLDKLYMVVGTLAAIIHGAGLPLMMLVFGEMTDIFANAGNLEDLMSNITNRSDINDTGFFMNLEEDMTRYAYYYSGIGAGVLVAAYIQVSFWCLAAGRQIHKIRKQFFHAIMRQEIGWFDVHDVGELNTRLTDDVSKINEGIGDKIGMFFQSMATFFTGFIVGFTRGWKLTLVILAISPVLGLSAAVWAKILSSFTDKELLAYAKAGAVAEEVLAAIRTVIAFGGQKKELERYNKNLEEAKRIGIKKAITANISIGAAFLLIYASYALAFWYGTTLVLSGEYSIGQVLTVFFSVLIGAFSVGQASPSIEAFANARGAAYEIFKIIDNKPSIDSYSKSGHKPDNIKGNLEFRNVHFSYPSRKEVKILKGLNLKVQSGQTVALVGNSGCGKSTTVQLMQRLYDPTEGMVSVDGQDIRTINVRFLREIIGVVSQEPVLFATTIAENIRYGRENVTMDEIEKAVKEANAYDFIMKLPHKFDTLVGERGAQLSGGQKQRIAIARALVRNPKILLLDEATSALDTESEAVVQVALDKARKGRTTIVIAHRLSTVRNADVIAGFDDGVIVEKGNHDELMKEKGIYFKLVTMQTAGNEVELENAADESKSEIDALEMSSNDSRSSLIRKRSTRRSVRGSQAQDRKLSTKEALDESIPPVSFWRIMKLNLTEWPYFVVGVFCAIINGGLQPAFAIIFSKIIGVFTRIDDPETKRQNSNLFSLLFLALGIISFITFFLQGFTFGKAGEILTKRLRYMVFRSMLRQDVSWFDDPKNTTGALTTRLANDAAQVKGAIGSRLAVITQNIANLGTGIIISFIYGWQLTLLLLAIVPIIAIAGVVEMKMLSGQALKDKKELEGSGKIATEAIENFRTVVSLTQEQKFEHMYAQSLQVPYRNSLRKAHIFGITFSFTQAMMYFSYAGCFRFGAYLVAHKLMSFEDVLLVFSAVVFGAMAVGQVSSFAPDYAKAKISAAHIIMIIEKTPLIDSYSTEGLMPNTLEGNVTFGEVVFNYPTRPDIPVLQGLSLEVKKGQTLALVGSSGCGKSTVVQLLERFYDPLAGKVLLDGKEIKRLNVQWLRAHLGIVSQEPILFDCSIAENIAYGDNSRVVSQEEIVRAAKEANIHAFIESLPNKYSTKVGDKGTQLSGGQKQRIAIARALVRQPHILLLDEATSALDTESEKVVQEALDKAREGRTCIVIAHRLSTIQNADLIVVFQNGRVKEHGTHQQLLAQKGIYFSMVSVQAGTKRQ

COC(=O)N1CCN(Cc2cccc(NC(=O)Nc3ccc(C)nc3)c2F)CC1 [omecamtiv mecarbil]
Substrate of P-gp (P-gp): substrate
Creatinine ([1]; Advanced HF, OM group, week 24): 1.37 ± 0.55 mg/dL
NT-proBNP ([1]; Advanced HF, OM group, week 24): 1837 [856, pg/ml
Systolic BP ([1]; Advanced HF, OM group, week 24): 116.7 ± 17.3 mm Hg
NT-proBNP (Ratio) [1, 3]: 0.86
Troponin I (Ratio) [1, 3]: 1.30
All-cause Death (%) [1, 4]: (23%)
All-cause Death Rate [1, 4]: 12.4 per 100 patient years
All-cause Death n/N [1, 4]: 692/3014
HF Hosp as 1st Primary Event (%) [1, 4]: (24%)
HF Hosp as 1st Primary Event Rate [1, 4]: 15.0 per 100 patient years
HF Hosp as 1st Primary Event n/N [1, 4]: 722/3014
Heart Failure Hospitalization (%) [1, 4]: (25%)
Heart Failure Hospitalization Rate [1, 4]: 15.4 per 100 patient years
Heart Failure Hospitalization n/N [1, 4]: 746/3014
Primary Outcome (%) [1, 4]: (34%)
Primary Outcome Rate [1, 4]: 21.1 per 100 patient years
Primary Outcome n/N [1, 4]: 1013/3014
Urgent Outpatient Visit as 1st Primary Event (%) [1, 4]: (2%)
Urgent Outpatient Visit as 1st Primary Event Rate [1, 4]: 1.1 per 100 patient years
Urgent Outpatient Visit as 1st Primary Event n/N [1, 4]: 52/3014
All-cause Death ARR [1, 5]: 0.6 per 100 patient years
All-cause Death HR (95% CI) [1, 5]: 1.05 (0.94, 1.17);
Heart Failure Hospitalization ARR [1, 5]: −0.1 per 100 patient years
Heart Failure Hospitalization HR (95% CI) [1, 5]: 1.01 (0.91, 1.12);
Primary Outcome ARR [1, 5]: 0.2 per 100 patient years
Primary Outcome HR (95% CI) [1, 5]: 0.99 (0.91, 1.08);
All-cause Death (%) [1, 6]: (34%)
All-cause Death Rate [1, 6]: 20.1 per 100 patient years
All-cause Death n/N [1, 6]: 365/1081
HF Hosp as 1st Primary Event (%) [1, 6]: (35%)
HF Hosp as 1st Primary Event Rate [1, 6]: 25.9 per 100 patient years
HF Hosp as 1st Primary Event n/N [1, 6]: 385/1106
Heart Failure Hospitalization (%) [1, 6]: (36%)
Heart Failure Hospitalization Rate [1, 6]: 26.2 per 100 patient years
Heart Failure Hospitalization n/N [1, 6]: 385/1081
Primary Endpoint (%) [1, 6]: (46%)
Primary Endpoint Rate [1, 6]: 34.3 per 100 patient years
Primary Endpoint n/N [1, 6]: 510/1106
Urgent Outpatient Visit as 1st Primary Event (%) [1, 6]: (2%)
Urgent Outpatient Visit as 1st Primary Event Rate [1, 6]: 1.2 per 100 patient years
Urgent Outpatient Visit as 1st Primary Event n/N [1, 6]: 18/1106
All-cause Death ARR [1, 7]: 1.5 per 100 patient years
All-cause Death HR (95% CI) [1, 7]: 0.92 (0.80, 1.06);
Heart Failure Hospitalization ARR [1, 7]: 5.2 per 100 patient years
Heart Failure Hospitalization HR (95% CI) [1, 7]: 0.84 (0.73, 0.96);
Primary Endpoint ARR [1, 7]: 8.3 per 100 patient years
Primary Endpoint HR (95% CI) [1, 7]: 0.80 (0.71, 0.90);
NT-proBNP ([1]; Non-Advanced HF, OM group, week 24): 1274 [531, pg/ml
NT-proBNP (Ratio) ([1]; Non-Advanced HF, week 0 to 24, OM vs placebo): 0.91
KCCQ total symptom score (TSS), increase ([1]; advanced HF): 1.1
KCCQ total symptom score (TSS), decrease ([1]; advanced HF): 1.7
Myocardial infarctions ([1]; human, in vivo): 3.8%
Serious adverse events related to ventricular tachyarrhythmias ([1]; human, in vivo): 7.9%
Strokes ([1]; human, in vivo): 1.6%
Treatment emergent serious adverse events ([1]; human, in vivo): 67%
Circulating cardiac troponin ([1]; in vivo): small increase
Creatinine ([1]; in vivo): 1.29 ± 0.49 mg/dL
Heart rate lowering, difference in change vs placebo ([1]; in vivo): 1.9 beats/minute
Systolic BP ([1]; in vivo): 118.4 ± 16.8 mm Hg
Troponin I (Ratio) ([1]; in vivo): 1.24
NT-proBNP ([1]; more advanced HF population, result in words): significant decrease
KCCQ total symptom score (TSS), increase ([1]; non-advanced HF): 3.3
KCCQ total symptom score (TSS), decrease ([1]; non-advanced HF): 0.2
Cardiovascular mortality, hazard ratio ([1]; patients with less advanced HF): 1.10
Absolute risk reduction, primary endpoint ([1]; patients with more advanced HF): 8.3 events/100 patient-years
Cardiovascular mortality, hazard ratio ([1]; patients with more advanced HF): 0.88
Primary endpoint, hazard ratio ([1]; patients with more advanced HF): 0.80
Relative risk reduction, primary endpoint ([1]; patients with more advanced HF): 20%
Primary endpoint, hazard ratio ([1]; patients without more advanced HF): 0.99
NNT ([1]; primary endpoint, patients with more advanced HF): 12
Pharmacokinetics (Cmax and AUC) versus normal hepatic function [2]: similar
Induction of CYP3A4 (CYP3A4): weak inducer
